According to the OPERA property sets (Mansouri et al. 2018):
Where a SMILES comes first, the peptide text is derived from it. [ ]: non-standard residue; d: D form. Orn = NCCC[CH](N)C(=O)O

| SMILES | logP |
| --- | --- |
| CCCNC(=O)C1(O)C(C)CC2C3CCC4=CC(=O)C=CC4(C)C3(F)C(O)CC21C (stereo unspecified) | 2.59 |
| COc1ccccc1OCc1ccccc1CCCN1CCC(O)CC1 | 2.82 |
| CCOc1ccc(NC(=O)OCCN2CCOCC2)cc1 | 2.18 |
| CCc1cccc(NC(=O)Cc2ccccc2)c1 | 3.47 |
| COCCN1CCc2cccc(Cl)c2CC1 | 3 |
| N#CC(C#N)=NNc1ccc(/N=N/c2ccccc2)cc1 | 4.25 |
| Cn1ccc(=O)c2ccccc21 | 0.44 |
| O=C(O)c1cccc2cccc(C(=O)O)c12 | 1.98 |
| CCOc1ccc(C(=O)O)cc1OCC | 2.37 |
| C1CCC2=NCCCN2CC1 | 1.38 |
| COC(=O)Cc1ccc(O)c2ncccc12 | 1.59 |
| Cc1ncc([N+](=O)[O-])n1CCNC(=O)OC1CCCCC1 | 2.01 |
| O=C1C(Br)=C(N2CC2)C(=O)C(Br)=C1N1CC1 | 2.03 |
| C[Si](Cn1cncn1)(c1ccc(F)cc1)c1ccc(F)cc1 | 3.7 |
| CC(=NNC(=S)NNC(=S)Nc1ccccc1Cl)c1ccccn1 | 2.67 |
| CC(C)NC(=O)C1(O)C(C)CC2C3CCC4=CC(=O)C=CC4(C)C3(F)C(O)CC21C (stereo unspecified) | 2.43 |
| COC1CC(OC2CCC3(C)C(CCC4C3CCC3(C)C(C5=CC(=O)OC5)C(OC(C)=O)CC43OC(C)=O)C2)OC(C)C1O (stereo unspecified) | 2.95 |
| CC1=C(N2CC2)C(=O)C(Br)=C(N2CC2)C1=O | 1.36 |
| CCOC(=O)CCC(C)n1nc2ccccc2n1 (stereo unspecified) | 3.05 |
| COC(=O)CNC(=O)C1(O)C(C)CC2C3CCC4=CC(=O)C=CC4(C)C3(F)C(O)CC21C (stereo unspecified) | 1.69 |
| CC1CN(c2cc3c(cc2F)c(=O)c(C(=O)O)cn3-c2ccc(F)cc2F)CCN1 (stereo unspecified) | -0.2 |
| CC(OCc1cn(C)c(C=NO)n1)C(C)(C)C (stereo unspecified) | 2.53 |

| SMILES | logP |
| --- | --- |
| Nc1ccn(C2OC3COC2C3O)c(=O)n1 (stereo unspecified) | -1.64 |
| N#CCc1ccc(C(=O)O)cc1 | 1.18 |
| COCCCNc1nc(NC(C)C)nc(SC)n1 | 2.82 |
| OCC1CC(F)C(n2cnc3c(F)ncnc32)O1 (stereo unspecified) | 0.06 |
| Cc1ccc(SCCNc2ccccc2C(N)=O)cc1 | 3.15 |
| CNN=Nc1ccc(C(N)=O)cc1 | 0.47 |
| CSCCNC(=O)C(F)(F)Cn1cnc([N+](=O)[O-])n1 | 0.41 |
| ON=Cc1nnc(-c2ccccc2)o1 | 2.03 |
| COc1cccc(N2CCN(CCN(C)C)C2=O)c1 | 1.76 |
| CCCCNC(=O)CNC(=O)C=[N+]=[N-] | 0.37 |
| Clc1ccc(Cl)c(-c2ccc(Cl)c(Cl)c2Cl)c1 | 6.85 |
| Clc1ccc(-c2ccc(Cl)c(Cl)c2)c(Cl)c1 | 6.31 |
| O=[N+]([O-])c1cnc(-c2ccc(F)cc2)[nH]1 | 1.52 |
| Oc1cccc(Cl)n1 | 0.93 |
| Cc1cccc(C)c1N | 1.84 |
| CCOC(=O)Cc1ccc(O)c2ncccc12 | 2.26 |
| COC(=O)n1cc(F)c(=O)[nH]c1=O | -0.68 |
| O=[N+]([O-])c1nccn1CCC(O)CO (stereo unspecified) | -0.9 |
| CCN(C=Nc1ccn(C2OC(CO)C(O)C2O)c(=O)n1)CC (stereo unspecified) | -0.76 |
| CC(=O)OC(C(=O)NC1C(=O)N2C(C(=O)O)=C(C)CSC12)c1ccccc1 (stereo unspecified) | 1.02 |
| CC(C)NCC(O)COCCCc1ccccc1 (stereo unspecified) | 1.94 |
| Cc1cccc(C)c1NC(=O)c1cccc(CN2CCCCC2)c1 | 3.47 |

| SMILES | logP |
| --- | --- |
| Clc1cc(Cl)c2c(c1)Oc1c(cc(Cl)c(Cl)c1Cl)O2 | 6.53 |
| CC(=O)OC1CC(OC2C(O)CC(OC3CCC4(C)C(CCC5C4CC(O)C4(C)C(C6=CC(=O)OC6)CCC54O)C3)OC2C)OC(C)C1OC1CC(O)C(O)C(C)O1 (stereo unspecified) | 2 |
| CC(=O)c1c(C)n(C)c2ccccc12 | 2.03 |
| Cn1ccc(=O)cc1 | -1.22 |
| Cc1ccc(Cl)c(C)c1 | 3.83 |
| CN1C(=O)NC(=O)C(=O)C1=O | -1.01 |
| CN(C)N=Nc1ccc(CC(=O)O)cc1 | 1.38 |
| CCN1C(=O)C(=O)c2ccc(Cl)cc2C1=O | 1.79 |
| O=C(O)CCc1cc(=O)c2cc3c(cc2o1)CCCC3 | 2.85 |
| O=C(c1ccc(F)cc1)C1CCN(CCn2c(=O)[nH]c3ccccc3c2=O)CC1 | 3.29 |
| CCN(C=Nc1ccn(C2CC(O)C(CO)O2)c(=O)n1)CC (stereo unspecified) | -0.59 |
| Clc1cc(-c2cc(Cl)c(Cl)c(Cl)c2Cl)c(Cl)c(Cl)c1Cl | 8.68 |
| Clc1cc(Cl)c(-c2ccc(Cl)c(Cl)c2Cl)c(Cl)c1 | 7.25 |
| CCCNC(=O)c1ccccc1 | 1.72 |
| COC(O)Cn1c(Br)cnc1[N+](=O)[O-] (stereo unspecified) | 0.16 |
| CCC1(CCC(C)C)C(=O)NC(=O)N(C)C1=O (stereo unspecified) | 2.45 |
| CCC(=O)C(CS(=O)(=O)c1ccc(C)cc1)c1ccc(Cl)cc1 (stereo unspecified) | 3.43 |
| CCOC(=O)C(C)Oc1ccc(Oc2cnc3cc(F)ccc3n2)cc1 (stereo unspecified) | 3.65 |
| CCC1COC(Cn2cncn2)(c2ccc(NC(=O)C(F)(F)F)cc2)O1 (stereo unspecified) | 1.08 |
| CC(=O)NC(Cc1ccccc1)C(=O)NC(CCCCN)C(N)=O (stereo unspecified) | 0.14 |
| COCCCNC(=S)C(F)(F)Cn1cnc([N+](=O)[O-])n1 | 1.1 |
| Cc1n[nH]c(C(=O)N2CCCC2)c1[N+](=O)[O-] | 0.25 |

| SMILES | logP |
| --- | --- |
| CC(C)(C)C(=O)OCOC(=O)C1=C(CSc2nncs2)CSC2C(NC(=O)Cn3cnnn3)C(=O)N12 (stereo unspecified) | 1.45 |
| O=[N+]([O-])C=C1NCCCN1Cc1ccc(Cl)nc1 | -0.62 |
| CC1CC2C3CCC4=CC(=O)C=CC4(C)C3(F)C(O)CC2(C)C1(O)C(=O)NCc1ccc([N+](=O)[O-])cc1 (stereo unspecified) | 3.44 |
| Cc1ncnc2c1ncn2C1CCC(CO)O1 (stereo unspecified) | -0.12 |
| C(=C\c1ccccc1)/CN1CCN(C(c2ccccc2)c2ccccc2)CC1 | 5.77 |
| NC(=O)COc1cccc(Cc2cnc(N)nc2N)c1 | 0.28 |
| Cc1cc(OCCN(C)C)c(C(C)C)cc1OS(=O)(=O)C12CCC(CC1=O)C2(C)C (stereo unspecified) | 4.37 |
| CC(NC(=O)N(CCCl)N=O)C(=O)O (stereo unspecified) | 0.78 |
| Cn1cc(-c2ccccc2)c(=O)c(-c2cccc(C(F)(F)F)c2)c1 | 3.16 |
| O=C1C(=O)N(c2ccccc2)C(=O)c2ccccc21 | 1.14 |
| COCCNC(=O)C(F)(F)Cn1cnc([N+](=O)[O-])n1 | -0.15 |
| CC(C)(C)C(=O)C(C#N)=NNc1ccc(Cl)cc1C(F)(F)F | 5.67 |
| Cc1cccc(C)c1NC(=O)c1ccc(CN2CCOCC2)cc1 | 2 |
| C=C1CCC2C(C1)c1c(OC)cc(CCC)cc1OC2(C)C (stereo unspecified) | 6.26 |
| CCCCCC(NC(C)=O)C(=O)OC (stereo unspecified) | 1.28 |
| CN(C)N=Nc1cccc(C(N)=O)c1 | 1.3 |
| Clc1cc(Cl)c2oc3c(Cl)cc(Cl)c(Cl)c3c2c1 | 6.34 |
| Clc1cc2c(c(Cl)c1Cl)Oc1ccc(Cl)c(Cl)c1O2 | 6.74 |
| CNC(=O)C=C(C)OP(=O)(OC)OC | -0.2 |
| COC1CC(OC2CCC3(C=O)C4CCC5(C)C(C6=CC(=O)OC6)CCC5(O)C4CCC3(O)C2)OCC1O (stereo unspecified) | 0.64 |
| Cc1cc(=O)[nH]c(=O)[nH]1 | -0.77 |
| COc1cc2c(c(OC)c1OC)-c1ccc(OC)c(=O)cc1C(NC(=O)C(F)(F)F)CC2 (stereo unspecified) | 1.72 |

| SMILES | logP |
| --- | --- |
| COc1ccc(C(=O)NP(=O)(N2CC2)N2CC2)cc1 | 1.08 |
| Cc1ncc(CO)c(COCCC(C)C)c1O | 0.83 |
| O=Cn1c2c(c3ccccc31)CCNC2 | 0.26 |
| CCN1C(=O)C(=O)c2cc(OC)c(OC)cc2C1=O | 1.31 |
| CCOc1ccc(OCc2ccccc2CCCN2CCC(O)CC2)cc1 | 3.42 |
| Cc1nnc[nH]1 | -0.55 |
| CCCCOc1ccc(NC(=O)OCCN2CCOCC2)cc1 | 3.35 |
| C#CC1(OC(=O)C2=CN(C)C=CC2)CCC2C3CCC4=CC(=O)CCC4(C)C3CCC21C (stereo unspecified) | 4.49 |
| O=C1NC(=O)C(=O)C(=O)N1 | -1.84 |
| CC(C)CNC(=O)C1(O)C(C)CC2C3CCC4=CC(=O)C=CC4(C)C3(F)C(O)CC21C (stereo unspecified) | 3.01 |
| Cc1ncc([N+](=O)[O-])n1CC#N | -0.07 |
| Cc1n[nH]c(C(=O)NC2CC2)c1[N+](=O)[O-] | 0.25 |
| O=C(CCCN1CCC(C(O)(c2ccccc2)c2ccccc2)CC1)c1ccccc1 | 4.42 |
| NC(=O)c1ccc2ccccc2c1 | 1.88 |
| CC1(C)COC(Cn2cncn2)(c2ccc(-n3ccnc3)cc2Cl)OC1 | 2.26 |
| CCCCNC(=O)C1(O)C(C)CC2C3CCC4=CC(=O)C=CC4(C)C3(F)C(O)CC21C (stereo unspecified) | 3.1 |
| O=c1nc(N=CN2CCOCC2)ccn1C1OC(CO)C(O)C1O (stereo unspecified) | -1.66 |
| CC(=O)C1(O)C(C)CC2C3CCC4=CC(=O)C=CC4(C)C3(F)C(O)CC21C (stereo unspecified) | 2.35 |
| S=C(N/N=C/c1ccc[nH]1)Nc1ccccc1 | 3.73 |
| Cn1c([N+](=O)[O-])cnc1-c1ccccc1 | 1.58 |
| O=C(Cc1ccccc1)NCCNCC(O)COCc1ccccc1 (stereo unspecified) | 1.45 |
| CCC(=O)C(CS(=O)(=O)c1ccccc1)c1ccc(C)cc1 (stereo unspecified) | 2.7 |

| SMILES | logP |
| --- | --- |
| C=CCN(C)N=Nc1ccccc1C(N)=O | 2.91 |
| COc1cccc(NC(=O)OCCN2CCOCC2)c1 | 2.19 |
| C#CCON=CNc1cc(Cl)c(OCC#C)c(Cl)c1 | 3.3 |
| O=[N+]([O-])N=C1NCCN1Cc1cccnc1 | -0.19 |
| OCCOc1ccccc1Cl | 1.81 |
| COC(=O)C1CC2C3CCC4=CC(=O)C=CC4(C)C3(F)C(O)CC2(C)C1C(=O)CO (stereo unspecified) | 1.78 |
| CCC(C)C(NC(=O)C(CCCN)NC(C)=O)C(=O)NC(C(N)=O)C(C)C (stereo not drawn) (Ac-[Orn]-Ile-Val-NH2; configuration not given here) | -0.43 |
| CC1CC2C3CCC4=CC(=O)C=CC4(C)C3(F)C(O)CC2(C)C1(O)C(=O)NCc1ccccc1 (stereo unspecified) | 3.28 |
| CCCOC(=O)C(C(=O)OC)=C1SC=CS1 | 2.72 |
| Cc1ccc(C)c(NN=C(C#N)C#N)c1 | 3.08 |
| CC(C)OC(=O)n1cc(F)c(=O)[nH]c1=O | 0.2 |
| O=C(NCCCO)C(F)(F)Cn1cnc([N+](=O)[O-])n1 | -0.63 |
| CC(C)Oc1cccc(NC(=O)c2ccccc2C(F)(F)F)c1 | 3.7 |
| CN(C)N=Nc1ccc([N+](=O)[O-])cc1 | 3.25 |
| Clc1ccc(Cl)c(-c2c(Cl)c(Cl)c(Cl)c(Cl)c2Cl)c1 | 7.93 |
| CCCCOC(=O)c1cnc2n(c1=O)C(C)CCC2 (stereo unspecified) | 1.77 |
| COc1c(O)cc2c(c1OC)-c1ccc(SC)c(=O)cc1C(NC(C)=O)CC2 (stereo unspecified) | 1.43 |
| CNC(=O)C1(O)C(C)CC2C3CCC4=CC(=O)C=CC4(C)C3(F)C(O)CC21C (stereo unspecified) | 1.54 |
| Cc1c(O)c(=O)ccn1-c1ccccc1 | 1.12 |
| c1ccc(Cn2cnnn2)cc1 | 1.36 |
| CCC(=O)C1(c2cccc(OC(=O)OC(C)C)c2)CCN(C)CC1 | 1.72 |
